The assay has as its target T1, PD-1/PD-L1 interaction (Homo sapiens, UniProt Q9NZQ7).
T1 construct: expressed in transfected cells; host or cells: CHO cells (aAPC-PD-L1) co-cultured with Jurkat cells overexpressing PD-1 and an NFAT-luciferase reporter
Briefly: PD-1/PD-L1 NFAT reporter co-culture assay. It is filed as cell-based. To be noted: Jurkat PD-1 NFAT-luciferase cells co-cultured with aAPC-PD-L1 CHO cells, 6 hrs at 37° C.; read-out: EC50 NFAT Luciferase. How it is done:
PD-1/PD-L1 NEAT Reporter Assay:
Compounds were tested in afunctional co-culture reporter assay in which TCR-mediated NFAT activity is inhibited by the engagement of PD-1 with PD-L1. […] CHO cells expressing surface-bound anti-CD3 antibodies and PD-L1 (artificial antigen presenting cells, aAPC-PD-L1) were first seeded overnight. Jurkat cells overexpressing PD-1 and expressing a luciferase construct under NFAT control are diluted in RPMI assay medium (RPMI 1640 with 2% FBS), mixed with compounds, and immediately seeded on the monolayer of aAPC-PD-L1. The co-culture is then incubated for 6 hrs at 37° C. Luciferase activity is assessed by adding the ONE-Glo reagent and measuring luminescence with a plate reader. EC50 values are calculated from the fit of the dose-response curves to a four-parameter equation (Table 3).
T1 sequence (Q9NZQ7 19-290): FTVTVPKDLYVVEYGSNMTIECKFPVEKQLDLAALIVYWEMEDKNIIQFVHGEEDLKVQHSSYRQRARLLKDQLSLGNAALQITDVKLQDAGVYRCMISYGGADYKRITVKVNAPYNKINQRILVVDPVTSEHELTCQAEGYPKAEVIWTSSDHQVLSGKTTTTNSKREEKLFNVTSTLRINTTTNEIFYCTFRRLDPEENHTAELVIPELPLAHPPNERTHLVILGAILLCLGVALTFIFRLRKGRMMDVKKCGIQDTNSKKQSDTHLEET
For orientation: EC50 means the concentration at which the effect is half-maximal. As to `COc1nc(OCc2cccc(-c3cccc(COc4nc(OC)c(CNC(C)C(=O)N(C)C)cc4Cl)c3C)c2C)c(Cl)cc1CNC(C)C(=O)N(C)C` (centres unmarked) [Example 83, 2,2′-((((((2,2′-dimethyl-[1,1′-biphenyl]-3,3′-diyl)bis(methylene))bis(oxy))bis(5-chloro-2-methoxypyridine-6,3-diyl))bis(methylene))bis(azanediyl))bis(N,N-dimethylpropanamide)], the EC50 is 1680 nM.

Take `COc1nc(OCc2cccc(-c3cccc(COc4nc(OC)c(CNC56CC(C(=O)O)(C5)C6)cc4Cl)c3C)c2C)c(Cl)cc1CNC12CC(C(=O)O)(C1)C2` [Example 85, 3,3′-((((((2,2′-dimethyl-[1,1′-biphenyl]-3,3′-diyl)bis(methylene))bis(oxy))bis(5-chloro-2-methoxypyridine-6,3-diyl))bis(methylene))bis(azanediyl))bis(bicyclo[1.1.1]pentane-1-carboxylic acid)]: the EC50 was determined as 9770 nM.

In the case of `COc1nc(OCc2cccc(-c3cccc(COc4nc(OC)c(CN[C@H](C(=O)O)c5ccccc5)cc4Cl)c3C)c2C)c(Cl)cc1CN[C@H](C(=O)O)c1ccccc1` [Example 86, (2S,2′S)-2,2′-((((((2,2′-dimethyl-[1,1′-biphenyl]-3,3′-diyl)bis(methylene))bis(oxy))bis(5-chloro-2-methoxypyridine-6,3-diyl))bis(methylene))bis(azanediyl))bis(2-phenylacetic acid)], the EC50 is at least 50000 nM.

Turning to `COc1nc(OCc2cccc(-c3cccc(COc4nc(OC)c(CNC5(C(=O)O)COC5)cc4Cl)c3C)c2C)c(Cl)cc1CNC1(C(=O)O)COC1` [Example 87, 3,3′-((((((2,2′-dimethyl-[1,1′-biphenyl]-3,3′-diyl)bis(methylene))bis(oxy))bis(5-chloro-2-methoxypyridine-6,3-diyl))bis(methylene))bis(azanediyl))bis(oxetane-3-carboxylic acid)], the EC50 was at least 50000 nM.

On to `CNC(=O)[C@H](C)NCc1cc(Cl)c(OCc2cccc(-c3cccc(COc4nc(OC)c(CN[C@@H](C)C(=O)NC)cc4Cl)c3C)c2C)nc1OC` [Example 88, (2S,2′S)-2,2′-((((((2,2′-dimethyl-[1,1′-biphenyl]-3,3′-diyl)bis(methylene))bis(oxy))bis(5-chloro-2-methoxypyridine-6,3-diyl))bis(methylene))bis(azanediyl))bis(N-methylpropanamide)], for which the EC50 came to 4150 nM.

As to `COC(=O)[C@@H](C)NCc1cc(Cl)c(OCc2cccc(-c3cccc(COc4nc(OC)c(CN[C@H](C)C(=O)OC)cc4Cl)c3C)c2C)nc1OC` [Example 89, Dimethyl 2,2′-((((((2,2′-dimethyl-[1,1′-biphenyl]-3,3′-diyl)bis(methylene))bis(oxy))bis(5-chloro-2-methoxypyridine-6,3-diyl))bis(methylene))bis(azanediyl))(2R,2′R)-dipropionate], the EC50 came out at 670 nM.

As to `Cc1c(COc2cc(OCc3cncc(C#N)c3)c(CN[C@@H](C)C(=O)O)cc2Cl)cccc1-c1cccc(-c2ccc(OCCN[C@@H](C)C(=O)O)c(C(F)(F)F)c2)c1C` [Example 95, (4-((4″-(2-(((S)-1-carboxyethyl)amino)ethoxy)-2,2′-dimethyl-3″-(trifluoromethyl)-[1,1′:3′,1″-terphenyl]-3-yl)methoxy)-5-chloro-2-((5-cyanopyridin-3-yl)methoxy)benzyl)-L-alanine], the EC50 is 639 nM.

As to `COc1nc(OCc2cccc(-c3cccc(COc4nc(OC)c(CNC(C)(C)C(=O)O)cc4Cl)c3C)c2C)c(Cl)cc1CN` [Example 96, 2-(((6-((3′-(((5-(aminomethyl)-3-chloro-6-methoxypyridin-2-yl)oxy)methyl)-2,2′-dimethyl-[1,1′-biphenyl]-3-yl)methoxy)-5-chloro-2-methoxypyridin-3-yl)methyl)amino)-2-methylpropanoic acid], the EC50 is 912 nM.

Regarding `COc1nc(OCc2cccc(-c3cccc(COc4nc(OC)c(CNC(C)(C)C(=O)O)cc4Cl)c3C)c2C)c(Cl)cc1CNC(C)(C)C(=O)O` [Example 97, 2,2′-((((((2,2′-dimethyl-[1,1′-biphenyl]-3,3′-diyl)bis(methylene))bis(oxy))bis(5-chloro-2-methoxypyridine-6,3-diyl))bis(methylene))bis(azanediyl))bis(2-methylpropanoic acid)], the EC50 is 28 nM.

For the compound `COc1nc(OCc2cccc(-c3cccc(COc4nc(OC)c(CN[C@@H](C)C(=O)O)cc4Cl)c3C)c2C)c(Cl)cc1CN[C@@H](C)C(=O)O` [Example 98, (2S,2′S)-2,2′-((((((2,2′-dimethyl-[1,1′-biphenyl]-3,3′-diyl)bis(methylene))bis(oxy))bis(5-chloro-2-methoxypyridine-6,3-diyl))bis(methylene))bis(azanediyl))dipropionic acid], the EC50 amounted to 70 nM.

Take `CC[C@@H](NCc1cc(Cl)c(OCc2cccc(-c3cccc(COc4nc(OC)c(CN[C@H](CC)C(=O)O)cc4Cl)c3C)c2C)nc1OC)C(=O)O` [Example 99, (2R,2′R)-2,2′-((((((2,2′-dimethyl-[1,1′-biphenyl]-3,3′-diyl)bis(methylene))bis(oxy))bis(5-chloro-2-methoxypyridine-6,3-diyl))bis(methylene))bis(azanediyl))dibutyric acid]: the EC50 was found to be 157 nM.

For the compound `COC(=O)[C@H](C)NCc1cc(Cl)c(OCc2cccc(-c3cccc(COc4nc(OC)c(CN[C@@H](C)C(=O)OC)cc4Cl)c3C)c2C)nc1OC` [Example 100, Dimethyl 2,2′-((((((2,2′-dimethyl-[1,1′-biphenyl]-3,3′-diyl)bis(methylene))bis(oxy))bis(5-chloro-2-methoxypyridine-6,3-diyl))bis(methylene))bis(azanediyl))(2S,2′S)-dipropionate], the EC50 was found to be 482 nM.

Regarding `COc1nc(OCc2cccc(-c3cccc(COc4nc(OC)c(CN[C@@H](C)C(N)=O)cc4Cl)c3C)c2C)c(Cl)cc1CN[C@@H](C)C(N)=O` [Example 101, (2S,2′S)-2,2′-((((((2,2′-dimethyl-[1,1′-biphenyl]-3,3′-diyl)bis(methylene))bis(oxy))bis(5-chloro-2-methoxypyridine-6,3-diyl))bis(methylene))bis(azanediyl))dipropanamide], the EC50 amounted to 1800 nM.

As for `COc1nc(O[C@H]2CCc3c(-c4cccc(-c5ccc(OCCNCCO)cc5)c4C)cccc32)ccc1CNCC(=O)O` [Example 102, (S)-((6-((4-(4′-(2-((2-hydroxyethyl)amino)ethoxy)-2-methyl-[1,1′-biphenyl]-3-yl)-2,3-dihydro-1H-inden-1-yl)oxy)-2-methoxypyridin-3-yl)methyl)glycine], the EC50 is 13200 nM.

Take `COc1nc(O[C@H]2CCc3c(-c4cccc(-c5ccc(OCCNC[C@@H](O)CC(=O)O)cc5)c4C)cccc32)ccc1CNCC(=O)O` [Example 103, (S)-4-((2-((3′-((S)-1-((5-(((carboxymethyl)amino)methyl)-6-methoxypyridin-2-yl)oxy)-2,3-dihydro-1H-inden-4-yl)-2′-methyl-[1,1′-biphenyl]-4-yl)oxy)ethyl)amino)-3-hydroxybutanoic acid]: the EC50 was 14900 nM.

Regarding `COc1nc(OCc2cccc(-c3cccc(COc4nc(OC)c([C@@H]5NCC[C@@H]5C(=O)O)cc4Cl)c3C)c2C)c(Cl)cc1[C@@H]1NCC[C@@H]1C(=O)O` [Example 104, (2R,2′R,3S,3′S)-2,2′-((((2,2′-dimethyl-[1,1′-biphenyl]-3,3′-diyl)bis(methylene))bis(oxy))bis(5-chloro-2-methoxypyridine-6,3-diyl))bis(pyrrolidine-3-carboxylic acid)], the EC50 is at least 50000 nM.

Consider `C=CCOC(=O)[C@H]1CCN[C@H]1c1cc(Cl)c(OCc2cccc(-c3cccc(COc4nc(OC)c([C@@H]5NCC[C@@H]5C(=O)O)cc4Cl)c3C)c2C)nc1OC` [Example 105, (2R,3S)-2-(6-((3′-(((5-((2R,3S)-3-((allyloxy)carbonyl)pyrrolidin-2-yl)-3-chloro-6-methoxypyridin-2-yl)oxy)methyl)-2,2′-dimethyl-[1,1′-biphenyl]-3-yl)methoxy)-5-chloro-2-methoxypyridin-3-yl)pyrrolidine-3-carboxylic acid], for which the EC50 is at least 50000 nM.

`Cc1c(-c2ccc(OCCNC[C@H](O)CC(=O)O)cc2)cccc1-c1cccc(-c2ccc(OCCNC[C@H](O)CC(=O)O)cc2)c1C` [Example 107, (3R,3′R)-4,4′-((((2′,2″-dimethyl-[1,1′:3′,1″:3″,1′″-quaterphenyl]-4,4′″-diyl)bis(oxy))bis(ethane-2,1-diyl))bis(azanediyl))bis(3-hydroxybutanoic acid)]: the EC50 is 35000 nM.

Turning to `Cc1c(COc2cc(OCc3cncc(C#N)c3)c(CNC[C@@H](O)CC(=O)O)cc2Cl)cccc1-c1ccc2c(c1)OC(CNC[C@@H](O)CC(=O)O)CO2` (stereo partly drawn) [Example 108, (3S)-4-((4-((3-(3-((((S)-3-carboxy-2-hydroxypropyl)amino)methyl)-2,3-dihydrobenzo[b] [1,4]dioxin-6-yl)-2-methylbenzyl)oxy)-5-chloro-2-((5-cyanopyridin-3-yl)methoxy)benzyl)amino)-3-hydroxybutanoic acid], the half-maximal effective concentration (EC50) was 13900 nM.

Consider `COc1nc(OCc2cccc(-c3cccc(COc4nc(OC)c(CN[C@@H](CCC(N)=O)C(=O)O)cc4Br)c3C)c2C)c(Br)cc1CN[C@@H](CCC(N)=O)C(=O)O` [Example 115, (2S,2′S)-2,2′-((((((2,2′-dimethyl-[1,1′-biphenyl]-3,3′-diyl)bis(methylene))bis(oxy))bis(5-bromo-2-methoxypyridine-6,3-diyl))bis(methylene))bis(azanediyl))bis(5-amino-5-oxopentanoic acid)], for which the EC50 is at least 50000 nM.
